Data: ChEMBL document CHEMBL1130478, “Mono and bis double ester prodrugs of novel aminomethyl-THF 1-methylcarbapenems” (Bioorg Med Chem Lett, 1997)

Assays:
Type in all cases: functional
[1] = test system: Mus musculus; assay: Antibacterial activity against Escherichia coli (311) infection in mice after single oral dose, activity expressed as ED50
[2] = test system: Mus musculus; assay: Antibacterial activity against Escherichia coli (311) infection in mice after single subcutaneous dose, activity expressed as ED50; details: sc
[3] = test system: Pseudomonas aeruginosa; assay: In vitro antibacterial activity against P. aeruginosa(GC 1544 oprd) without pre-incubation in mouse serum
[4] = target: T1, Dipeptidase 1 (Sus scrofa) (UniProt P22412); assay: Relative hydrolysis by hog Dehydropeptidase
T1 sequence (whole entry): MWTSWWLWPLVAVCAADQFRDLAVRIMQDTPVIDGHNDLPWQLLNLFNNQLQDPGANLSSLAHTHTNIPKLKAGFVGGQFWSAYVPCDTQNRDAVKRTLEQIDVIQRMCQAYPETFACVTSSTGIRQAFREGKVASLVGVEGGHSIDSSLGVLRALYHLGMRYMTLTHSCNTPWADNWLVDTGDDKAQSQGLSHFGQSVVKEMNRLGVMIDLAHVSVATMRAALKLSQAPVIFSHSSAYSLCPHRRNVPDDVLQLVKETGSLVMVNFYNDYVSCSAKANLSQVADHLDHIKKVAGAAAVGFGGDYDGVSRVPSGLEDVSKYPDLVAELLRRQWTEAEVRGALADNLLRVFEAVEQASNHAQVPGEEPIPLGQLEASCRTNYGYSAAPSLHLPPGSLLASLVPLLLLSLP

[5] = test system: Morganella morganii; assay: In vitro antibacterial activity against M. morganii(GC 2213) following pre-incubation in mouse serum
[6] = test system: Escherichia coli; assay: In vitro antibacterial activity expressed as MIC against E. coli(GC 2205) following pre-incubation in mouse serum
[7] = test system: Stenotrophomonas maltophilia; assay: In vitro antibacterial activity against X. maltophilia(GC 562) without pre-incubation in mouse serum
[8] = test system: Acinetobacter calcoaceticus; assay: In vitro antibacterial activity against Acinetobacter calcoaceticus (GC 756) following preincubation in mouse serum
[9] = test system: Staphylococcus aureus; assay: In vitro antibacterial activity against S. aureus(ATCC 29213) without pre-incubation in mouse serum
[10] = test system: Acinetobacter calcoaceticus; assay: In vitro antibacterial activity against Acinetobacter calcoaceticus (GC 756) without preincubation in mouse serum
[11] = test system: Escherichia coli; assay: In vitro antibacterial activity expressed as MIC against E. coli(GC 1792) following pre-incubation in mouse serum
[12] = test system: Staphylococcus aureus; assay: In vitro antibacterial activity against S. aureus(GC 2220 MRSA) following pre-incubation in mouse serum
[13] = test system: Pseudomonas aeruginosa; assay: In vitro antibacterial activity against Pseudomonas aeruginosa (ATCC 27853) without pre-incubation in mouse serum
[14] = test system: Enterobacter cloacae; assay: In vitro antibacterial activity against E. cloacae(GC 2209) without pre-incubation in mouse serum
[15] = test system: Enterococcus faecalis; assay: In vitro antibacterial activity against E. faecalis(GC 842) following pre-incubation in mouse serum
[16] = test system: Escherichia coli; assay: In vitro antibacterial activity expressed as MIC against Escherichia coli (ATCC 25922) without pre-incubation in mouse serum
[17] = test system: Escherichia coli; assay: In vitro antibacterial activity expressed as MIC against Escherichia coli (ATCC 25922) following pre-incubation in mouse serum
[18] = test system: Morganella morganii; assay: In vitro antibacterial activity against M. morganii(GC 2213) without pre-incubation in mouse serum
[19] = test system: Pseudomonas aeruginosa; assay: In vitro antibacterial activity against P. aeruginosa(GC 1544 oprd) following pre-incubation in mouse serum
[20] = test system: Enterococcus faecium; assay: In vitro for antibacterial activity against E. faecium(GC 1182) without pre-incubation in mouse serum
[21] = test system: Staphylococcus aureus; assay: In vitro antibacterial activity against S aureus(ATCC 29213) following preincubation in mouse serum
[22] = test system: Citrobacter freundii; assay: In vitro antibacterial activity against C. freundii(GC 2211) without preincubation in mouse serum
[23] = test system: Enterobacter cloacae; assay: In vitro antibacterial activity against E. cloacae(GC 2209) following preincubation in mouse serum
[24] = test system: Staphylococcus aureus; assay: In vitro antibacterial activity against S. aureus(GC 2220 MRSA) without pre-incubation in mouse serum
[25] = test system: Enterococcus faecium; assay: In vitro for antibacterial activity against E. faecium(GC 1182) following pre-incubation in mouse serum
[26] = test system: Citrobacter freundii; assay: In vitro antibacterial activity against C. freundii(GC 2211) following pre-incubation in mouse serum
[27] = test system: Enterococcus faecalis; assay: In vitro antibacterial activity against E. faecalis(GC 842) without pre-incubation in mouse serum
[28] = test system: Stenotrophomonas maltophilia; assay: In vitro antibacterial activity against X. maltophilia(GC 562) following pre-incubation in mouse serum
[29] = test system: Escherichia coli; assay: In vitro antibacterial activity expressed as MIC against E. coli(GC 1792) without pre-incubation in mouse serum
[30] = test system: Pseudomonas aeruginosa; assay: In vitro antibacterial activity against Pseudomonas aeruginosa (ATCC 27853) following pre-incubation in mouse serum
[31] = test system: Escherichia coli; assay: In vitro antibacterial activity expressed as MIC against E. coli(GC 2205) without pre-incubation in mouse serum

Structure (SMILES): CC(OC(=O)OC1=CCCCC1)OC(=O)C1=C(S[C@@H]2CCO[C@@H]2CN)[C@H](C)C2[C@@H]([C@@H](C)O)C(=O)N12.Cl (stereo partly drawn)
- ED50 [1]: > 3.2 mg/kg
- ED50 [2]: 1.6 mg/kg

Structure (SMILES): CCOC(=O)OCOC(=O)C1=C(S[C@@H]2CCO[C@@H]2CN)[C@H](C)C2[C@@H]([C@@H](C)O)C(=O)N12.Cl (stereo partly drawn)
- MIC [3]: > 128 µg/mL
- Relative hydrolysis [4]: 11
- MIC [5]: 0.5 µg/mL
- MIC [6]: < 0.06 µg/mL
- MIC [7]: > 128 µg/mL
- ED50 [1]: 8.2 mg/kg
- MIC [8]: 2 µg/mL
- MIC [9]: 1 µg/mL
- MIC [10]: 64 µg/mL
- MIC [11]: < 0.06 µg/mL
- MIC [12]: 2 µg/mL
- MIC [13]: 128 µg/mL
- MIC [14]: 2 µg/mL
- MIC [15]: 2 µg/mL
- MIC [16]: 0.5 µg/mL
- MIC [17]: < 0.06 µg/mL
- MIC [18]: 16 µg/mL
- MIC [19]: 32 µg/mL
- MIC [20]: 128 µg/mL
- MIC [21]: 0.03 µg/mL
- MIC [22]: 4 µg/mL
- MIC [23]: 0.12 µg/mL
- MIC [24]: 64 µg/mL
- MIC [25]: 128 µg/mL
- MIC [26]: 0.25 µg/mL
- MIC [27]: 16 µg/mL
- ED50 [2]: 0.62 mg/kg
- MIC [28]: > 128 µg/mL
- MIC [29]: 0.5 µg/mL
- MIC [30]: 8 µg/mL
- MIC [31]: 1 µg/mL

Structure (SMILES): CCN(C(C)C)C(C)C.C[C@H]1C(S[C@@H]2CCO[C@@H]2CNC(=O)OCOC(=O)C(C)(C)C)=C(C(=O)O)N2C(=O)[C@H]([C@@H](C)O)C12 (stereo partly drawn)
- ED50 [1]: 2.9 mg/kg
- ED50 [2]: 0.65 mg/kg

Structure (SMILES): CCOC(=O)OCOC(=O)C1=C(S[C@@H]2CCO[C@@H]2CNC(=O)OC(C)OC(=O)C(C)C)[C@H](C)C2[C@@H]([C@@H](C)O)C(=O)N12 (stereo partly drawn)
- ED50 [1]: 0.72 mg/kg
- ED50 [2]: 0.45 mg/kg

Structure (SMILES): C[C@@H](O)[C@H]1C(=O)N2C(C(=O)O)=C(SCCNC=N)C[C@H]12 [IMIPENEM ANHYDROUS]
- ED50 [1]: 79 mg/kg
- ED50 [2]: 0.7 mg/kg

Structure (SMILES): CCOC(=O)OCOC(=O)C1=C(S[C@@H]2CCO[C@@H]2CNC(=O)OCOC(=O)c2ccccc2)[C@H](C)C2[C@@H]([C@@H](C)O)C(=O)N12 (stereo partly drawn)
- ED50 [1]: 0.76 mg/kg
- ED50 [2]: 0.54 mg/kg

Structure (SMILES): CCCC(=O)OCOC(=O)NC[C@H]1OCC[C@H]1SC1=C(C(=O)[O-])N2C(=O)[C@H]([C@@H](C)O)C2[C@H]1C.[Na+] (stereo partly drawn)
- MIC [3]: > 128 µg/mL
- Relative hydrolysis [4]: 5.9
- MIC [5]: 0.5 µg/mL
- MIC [6]: < 0.06 µg/mL
- MIC [7]: > 128 µg/mL
- ED50 [1]: 3.4 mg/kg
- MIC [8]: 2 µg/mL
- MIC [9]: 0.12 µg/mL
- MIC [10]: 32 µg/mL
- MIC [11]: < 0.06 µg/mL
- MIC [12]: 1 µg/mL
- MIC [13]: 64 µg/mL
- MIC [14]: 2 µg/mL
- MIC [15]: 1 µg/mL
- MIC [16]: 0.5 µg/mL
- MIC [17]: < 0.06 µg/mL
- MIC [18]: 2 µg/mL
- MIC [19]: 16 µg/mL
- MIC [20]: 128 µg/mL
- MIC [21]: 0.03 µg/mL
- MIC [22]: 4 µg/mL
- MIC [23]: 0.06 µg/mL
- MIC [24]: 8 µg/mL
- MIC [25]: 64 µg/mL
- MIC [26]: 0.12 µg/mL
- MIC [27]: 2 µg/mL
- ED50 [2]: 0.26 mg/kg
- MIC [28]: > 128 µg/mL
- MIC [29]: 0.5 µg/mL
- MIC [30]: 8 µg/mL
- MIC [31]: < 0.06 µg/mL

Structure (SMILES): CC(=O)OC(C)OC(=O)NC[C@H]1OCC[C@H]1SC1=C(C(=O)O)N2C(=O)[C@H]([C@@H](C)O)C2[C@H]1C.CCN(C(C)C)C(C)C (stereo partly drawn)
- ED50 [1]: 4.5 mg/kg
- ED50 [2]: 0.62 mg/kg

Structure (SMILES): CC(OC(=O)OC1=CCCCC1)OC(=O)C1=C(S[C@@H]2CCO[C@@H]2CNC(=O)OCOC(=O)C(C)C)[C@H](C)C2[C@@H]([C@@H](C)O)C(=O)N12 (stereo partly drawn)
- ED50 [1]: 1.5 mg/kg
- ED50 [2]: 1.9 mg/kg

Structure (SMILES): CC(C)C(=O)OCOC(=O)C1=C(SC2CCOC2CN)[C@H](C)C2[C@@H]([C@@H](C)O)C(=O)N12.CCN(C(C)C)C(C)C (stereo partly drawn)
- ED50 [1]: 2.3 mg/kg
- ED50 [2]: 0.18 mg/kg
